In US20160304552A1, “MODIFIED NUCLEIC ACID MOLECULES AND USES THEREOF” (MODERNA THERAPEUTICS, INC., priority 2013, published 2016):

Assays:
T7 RNA polymerase = T7 RNA polymerase (Escherichia phage T7, UniProt P00573); test: In vitro transcription yields of modified mRNA; format: biochemical; conditions: for EPO In Vitro Transcription yield: EPO mRNA made with the modified NTP(s); for GCSF In Vitro Transcription yield: GCSF mRNA made with the modified NTP(s); for Luc In Vitro Transcription yield: Luciferase mRNA made with the modified NTP(s)
Sequence of T7 RNA polymerase (P00573 whole entry): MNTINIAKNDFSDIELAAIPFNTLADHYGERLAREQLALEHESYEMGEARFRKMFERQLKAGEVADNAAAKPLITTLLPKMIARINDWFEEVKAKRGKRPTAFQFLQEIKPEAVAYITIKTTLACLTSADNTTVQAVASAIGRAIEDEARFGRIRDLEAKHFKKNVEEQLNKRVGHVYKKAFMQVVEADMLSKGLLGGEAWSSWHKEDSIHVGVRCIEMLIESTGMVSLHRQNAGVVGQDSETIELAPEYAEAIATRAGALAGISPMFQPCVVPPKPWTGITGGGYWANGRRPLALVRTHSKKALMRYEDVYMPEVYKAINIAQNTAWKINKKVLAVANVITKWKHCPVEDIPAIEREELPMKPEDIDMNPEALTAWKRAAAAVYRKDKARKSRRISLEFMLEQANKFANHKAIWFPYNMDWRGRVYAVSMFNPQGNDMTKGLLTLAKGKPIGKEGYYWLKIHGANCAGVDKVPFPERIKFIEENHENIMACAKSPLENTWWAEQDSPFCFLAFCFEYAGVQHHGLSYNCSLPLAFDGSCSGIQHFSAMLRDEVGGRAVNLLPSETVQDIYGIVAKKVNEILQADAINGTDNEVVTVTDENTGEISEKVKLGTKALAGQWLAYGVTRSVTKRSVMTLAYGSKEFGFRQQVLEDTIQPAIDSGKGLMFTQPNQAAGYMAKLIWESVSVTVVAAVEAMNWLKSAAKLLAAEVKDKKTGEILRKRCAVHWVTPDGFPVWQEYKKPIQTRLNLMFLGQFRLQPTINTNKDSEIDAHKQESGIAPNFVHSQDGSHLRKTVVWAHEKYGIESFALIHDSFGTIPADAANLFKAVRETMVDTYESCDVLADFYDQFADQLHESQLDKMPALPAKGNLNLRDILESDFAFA

[1] = test system: Rabbit Reticulocyte Lysate; test: In vitro translation screen, firefly Luciferase modRNA (luciferase assay, relative light units); format: biochemical; conditions: Table 20; 250 ng modRNA, 45 min, 30° C.
[2] = test system: Rabbit Reticulocyte Lysate; test: In vitro translation screen, human GCSF modRNA (GCSF ELISA); format: biochemical; conditions: Table 20; 250 ng modRNA, 45 min, 30° C.
[3] = test system: Rabbit Reticulocyte Lysate; test: In vitro translation screen, human EPO modRNA (EPO ELISA); format: biochemical; conditions: Table 20; 250 ng modRNA, 45 min, 30° C.
HeLa cells [4] = test: Transfection in HeLa cells, Luciferase modRNA (luciferase assay, relative light units); format: cell-based, human; conditions: Table 22, 83 ng modRNA, Lipofectamine 2000, 18 h to 22 h
HeLa cells [5] = test: Transfection in HeLa cells, human GCSF modRNA (GCSF ELISA of supernatant); format: cell-based; conditions: Table 22, 250 ng modRNA, 18 h to 22 h
HeLa cells [6] = test: Transfection in HeLa cells, human EPO modRNA (EPO ELISA of supernatant); format: cell-based; conditions: Table 22, 18 h to 22 h
human PBMC = test: PBMC cytokine assay, interferon-alpha production (IFN-alpha multi-subtype ELISA); format: cell-based

Row | SMILES | EPO In Vitro Transcription yield (T7 RNA polymerase) [mg] | GCSF In Vitro Transcription yield (T7 RNA polymerase) [mg] | Luc In Vitro Transcription yield (T7 RNA polymerase) [mg] | Luc Expression (RLUs) [1] [RLUs] | GCSF Expression [2] [pg/mL] | Epo Expression [3] [pg/mL] | Luc Expression (RLUs) (HeLa cells [4]) | GCSF Expression (HeLa cells [5]) [pg/mL] | Epo Expression (HeLa cells [6]) [pg/mL] | interferon-alpha concentration in PBMC supernatant (human PBMC; Luc mRNA, 1st value in cell) [pg/mL] | interferon-alpha concentration in PBMC supernatant (human PBMC; Luc mRNA, 2nd value in cell) [pg/mL] | interferon-alpha concentration in PBMC supernatant (human PBMC; Luc mRNA, 3rd value in cell) [pg/mL] | interferon-alpha concentration in PBMC supernatant (human PBMC; hEPO mRNA, 1st value in cell) [pg/mL] | interferon-alpha concentration in PBMC supernatant (human PBMC; hEPO mRNA, 2nd value in cell) [pg/mL] | interferon-alpha concentration in PBMC supernatant (human PBMC; hEPO mRNA, 3rd value in cell) [pg/mL] | interferon-alpha concentration in PBMC supernatant (human PBMC; hGCSF mRNA, 1st value in cell) [pg/mL] | interferon-alpha concentration in PBMC supernatant (human PBMC; hGCSF mRNA, 2nd value in cell) [pg/mL] | interferon-alpha concentration in PBMC supernatant (human PBMC; hGCSF mRNA, 3rd value in cell) [pg/mL]
1 | COc1cn([C@@H]2O[C@H](COP(=O)(O)OP(=O)(O)OP(=O)(O)O)C(O)C2O)c(=O)[nH]c1=O (stereo in doubt) [Compound 00901013007, 5-methoxy-UTP] | 0.1727 | 0.1546 | 0.3817 | 306600 | 26440 | 17530 | 31580 | 1399000 | 1116000 | 390 | -70 | -170 | -210 | 162.5 | 150 | 350 | -41.66 | 40
2 | CC(=O)Nc1ccn([C@@H]2O[C@H](COP(=O)(O)OP(=O)(O)OP(=O)(O)O)C(O)C2O)c(=O)n1 (stereo in doubt) [Compound 00901014007, N4-Ac-CTP] | 0.4351 | 0.3658 | 0.4394 | 167600 | 8794 | 8675 | 141300 | 2094000 | 2907000 | 7170 | 2500 | 5879 | 4050 | 2137.5 | 5850 | 5683.33 | 4883.33 | 4590
